From patent US20110207817A1, “ANTI-INFLAMMATORY COMPOUNDS AND COMPOSITIONS THEREOF” (priority 2008, published 2011)

What was measured:
Type in all cases: cell-based
[1] = tested on: Mouse macrophage Raw 264.7 cells; experiment: LPS-induced PGE2 release from Raw 264.7 cells (Example 4)
Experimental: (§1) In the presence and absence of sodium propyl paraben, mouse macrophage cells (RAW 264.7) and human gingival cells (HGF) were stimulated with LPS and the levels of inflammatory mediators Prostaglandin E2 (PGE2) and interleukin 8 (IL-8) in the cell supernatants were measured. While LPS administration increased the secretion of inflammatory mediators, sodium propyl paraben decreased LPS induced secretion of these mediators in a dose dependent manner. Sodium propyl paraben was identified as a novel anti-inflammatory agent, inhibiting the secretion of inflammatory mediators from both leukocytes and gingival fibroblasts. Mouse macrophage Raw 264.7 cells and human gingival fibroblast HGF cells were purchased from ATCC (Manassas, Va.) and ScienCell LLC (Carlsbad, Calif.), respectively. All of the culturing reagents were purchased from Mediatech (Manassas, Va.) unless otherwise stated. Both cell lines were cultured in a humidified incubator at 37° C. and in the presence of 5% CO2 and maintained in Dulbecco's Modified Eagle Medium (DMEM, 4.5 g/l glucose) supplemented with 10% Fetal Bovine Serum (FBS) and 1% penicillin-streptomycin. […] The level of PGE2 or IL-8 was analyzed using commercially available enzyme-linked immunosorbent assay (ELISA) kits (R&D Systems, Minneapolis, Minn.). […]

[2] = tested on: human gingival fibroblast HGF cells; experiment: LPS-mediated IL-8 production (Example 4)
Experimental: as §1

[3] = tested on: Human Gingival Fibroblast (HGF) cells; experiment: PGE2 release from LPS-irritated Human Gingival Fibroblast cells, neat solution (Example 1); details: for PGE2 Release (with LPS): 2 μg/mL P. gingivalis LPS, negative control without LPS = 100%
Experimental: For Examples 1 through 3, three sets of cell culture experiments were conducted in order to establish the anti-inflammatory efficacy of sodium propyl paraben. In all cases, in-vitro testing was conducted using Human Gingival Fibroblast cells suspended in low serum media. To irritate the cells, 2 μg/mL lipopolysaccharide (LPS) derived from P. gingivalis was added to the media. Sodium propyl paraben was added either directly to the media or incorporated into an adhesive matrix which was then suspended into the media by means of a permeable plastic insert. Cellular response was quantified by the presence of Prostaglandin E2 (PGE2), a cytokine associated with cellular irritation and inflammation, following an incubation period. Data is reported below after normalizing the level of PGE2 release of a negative control to “100%”. In-vitro testing was conducted using Human Gingival Fibroblast (HGF) cells that had been purchased from ScienCell (Carlsbad, Calif.). Prior to use, the cells had been grown in a 37° C. incubator with 5% CO2 and 95% humidity. Cells were maintained in high glucose Dulbecco's Modified Eagle's Medium (Mediatech, Manassas, Va.) with a 10% addition of heat inactivated Fetal Bovine Serum (Mediatech) and a 1% addition of Penicillin-Streptomycin 100× solution (Mediatech). Cells that had been previously frozen for long-term storage were allowed to recover/expand for at least one passage before being utilized for experimentation. To plate the cells, the maintenance medium was aspirated and the cells were washed with Hank's Balanced Salt Solution (Mediatech). Subsequently, the HBSS was aspirated and a trypsin-EDTA solution (Mediatech) was added to ensure that the cells released from the tissue culture plastic. Maintenance medium was reapplied and fractions of the solution containing the cells were transferred to a multi-well plate. After transfer, incubation was conducted to expand the cell population to 80% confluency. When the desired level of confluency was achieved, the maintenance medium was aspirated and one of several test solutions was added. For a negative control, a low serum medium was prepared that contained 0.5% of Fetal Bovine Serum (Mediatech) and 581.08 mg/L of L-gluatmine powder (Sigma-Aldrich, Milwaukee, Wis.) in DMEM High Glucose Media without Phenol Red and L-Glutamine (VWR Scientific, West Chester, Pa.). Low serum media were also prepared with the addition of 1, 10, or, 100 μg/mL of sodium propyl paraben (Sigma-Aldrich). […] An ELISA kit from R&D Systems (Minneapolis, Minn.) was used to quantify the release of PGE2 from the cells. […] The quantity of PGE2 reported by the assay was normalized by the percentage of viable cells or total protein. […]

[4] = tested on: human gingival fibroblast HGF cells; experiment: LPS-induced PGE2 release from HGF cells (Example 4); details: 100 μg/ml, without LPS
Experimental: as §1

SMILES | LPS-elevated release of PGE2 ([1]; 1, 10 and 100 μg/ml, PG-LPS 2 μg/ml, FIG. 1A) | LPS mediated IL-8 production ([2]; 1, 10 or 100 μg/ml, PG-LPS 2 μg/ml, FIG. 1C) | PGE2 Release (with LPS) ([3]; 1 μg/mL in low serum media) [%] | PGE2 Release (with LPS) ([3]; 10 μg/mL in low serum media) [%] | PGE2 Release (with LPS) ([3]; 100 μg/mL in low serum media) [%] | PGE2 Release (without LPS) ([3]; 100 μg/mL in low serum media, no LPS, negative control = 100%) [%] | Induction of PGE2 by compound alone [4] | Induction of PGE2 by compound alone ([1]; 100 μg/ml, without LPS) | Induction of IL-8 by compound alone ([2]; 100 μg/ml, without LPS, either cell model)
CCCOC(=O)c1ccc(O)cc1.[Na] [Sodium Propyl Paraben, propyl 4-hydroxybenzoate, sodium salt] | reduced to basal level | reduced LPS mediated IL-8 production in a dose dependent manner | 124 ± 52 | 103 ± 23 | 84 ± 62 | 62 ± 37 | – | – | –
CCCOC(=O)c1ccc(O)cc1 [propyl paraben, propyl 4-hydroxybenzoate] | – | – | – | – | – | – | not observed | not observed | not observed
